The NIST ThermoML archive (doi:10.1016/j.jct.2004.07.018)
Numbers after ± are expanded uncertainties.

Experiment: mn = molality of the nth substance listed, in mol/kg
Settings: 101.3 kPa, Liquid, buoyancy

CCOS(=O)(=O)[O-].CCn1cc[n+](C)c1 [1-ethyl-3-methylimidazolium ethyl sulfate] + O
mass density [kg/m3]
Settings | 278.15 K | 283.15 K | 288.15 K | 293.15 K | 298.15 K | 303.15 K
m1 = 0.2224 | 1010 ± 5.7 | 1009.6 ± 5.7 | 1008.7 ± 5.7 | 1007.6 ± 5.7 | 1006.3 ± 5.7 | 1004.7 ± 5.7
m1 = 0.4472 | 1019.6 ± 5.8 | 1018.9 ± 5.8 | 1017.8 ± 5.8 | 1016.7 ± 5.7 | 1015 ± 5.7 | 1013.3 ± 5.7
m1 = 0.6739 | 1028.5 ± 5.8 | 1027.7 ± 5.8 | 1026.5 ± 5.8 | 1025.2 ± 5.8 | 1023.3 ± 5.8 | 1021.6 ± 5.8
m1 = 0.903 | 1037.1 ± 5.9 | 1036.1 ± 5.9 | 1034.8 ± 5.8 | 1033.3 ± 5.8 | 1031.2 ± 5.8 | 1029.3 ± 5.8
m1 = 1.132 | 1045.3 ± 5.9 | 1044 ± 5.9 | 1042.6 ± 5.9 | 1041 ± 5.9 | 1038.7 ± 5.9 | 1036.8 ± 5.9
m1 = 1.364 | 1053.1 ± 6 | 1051.5 ± 5.9 | 1050.1 ± 5.9 | 1048.3 ± 5.9 | 1045.7 ± 5.9 | 1043.9 ± 5.9
m1 = 1.598 | 1060.5 ± 6 | 1058.8 ± 6 | 1057.2 ± 6 | 1055.2 ± 6 | 1052.5 ± 5.9 | 1050.6 ± 5.9
m1 = 1.835 | 1067.6 ± 6 | 1065.6 ± 6 | 1063.8 ± 6 | 1061.9 ± 6 | 1058.9 ± 6 | 1057 ± 6
m1 = 2.072 | 1074.2 ± 6.1 | 1072 ± 6.1 | 1070.2 ± 6 | 1068.1 ± 6 | 1064.9 ± 6 | 1062.9 ± 6
m1 = 2.313 | 1080.5 ± 6.1 | 1078.2 ± 6.1 | 1076.2 ± 6.1 | 1074.1 ± 6.1 | 1070.6 ± 6.1 | 1068.6 ± 6
m1 = 2.554 | 1086.4 ± 6.1 | 1084 ± 6.1 | 1082 ± 6.1 | 1079.6 ± 6.1 | 1076.1 ± 6.1 | 1074.1 ± 6.1
m1 = 2.798 | 1092.2 ± 6.2 | 1089.6 ± 6.2 | 1087.4 ± 6.1 | 1085 ± 6.1 | 1081.3 ± 6.1 | 1079.4 ± 6.1
m1 = 3.044 | 1098.2 ± 6.2 | 1095 ± 6.2 | 1092.5 ± 6.2 | 1090 ± 6.2 | 1086.2 ± 6.1 | 1084.3 ± 6.1
